From patent US11479802B2, “Assays for screening activity of modulators of members of the hydroxy steroid (17-beta) dehydrogenase (HSD17B) family” (Regeneron Pharmaceuticals, Inc., priority 2017, dated 2022)
Where a name gives a salt, the structure may show the parent alone.

Biological target: T1, human HSD17B13 (Homo sapiens, UniProt Q7Z5P4)
T1 sequence (Q7Z5P4 20-300): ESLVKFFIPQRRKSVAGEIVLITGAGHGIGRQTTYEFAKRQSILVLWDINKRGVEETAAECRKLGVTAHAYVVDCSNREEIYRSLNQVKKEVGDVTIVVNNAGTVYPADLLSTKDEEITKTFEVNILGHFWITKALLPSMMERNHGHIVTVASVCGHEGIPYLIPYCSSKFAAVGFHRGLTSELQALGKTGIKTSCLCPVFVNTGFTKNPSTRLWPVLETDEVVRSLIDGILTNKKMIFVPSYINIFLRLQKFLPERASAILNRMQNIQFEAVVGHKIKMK
Assay: Substrate screening of steroid and bioactive lipid libraries against purified recombinant HSD17B13 (NADH-linked luciferase assay)
Assay type: biochemical
Settings: for HSD17B13 Enzymatic Activity Relative Light Units: 500 μM NAD+, 100 ng enzyme, 3 hours at 23° C.; for HSD17B13 Enzymatic Activity Percent Estradiol Control: normalized to 50 μM estradiol after subtraction of 5% DMSO
Summary of the method: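 Substrates (bioactive lipids 5 μM, steroids 50 μM; 5% DMSO) tested with 500 μM NAD+ and 100 ng recombinant human HSD17B13 in 0.2 M Tris-HCl pH 7.5, 3 h, 23° C. Luminescent NADH detection followed 1 h later; RLU normalized to estradiol (50 μM, 100%) and DMSO (0%) controls.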

[1] = Bioactive Lipid Library, 5 μM bioactive lipid (Estradiol Control 50 μM)
[2] = Bioactive Lipid Library, 5 μM bioactive lipid

Compound | HSD17B13 Enzymatic Activity Relative Light Units [1] | HSD17B13 Enzymatic Activity Percent Estradiol Control [2] | HSD17B13 Enzymatic Activity Relative Light Units (Steroid Library, 50 μM steroid) | HSD17B13 Enzymatic Activity Percent Estradiol Control (Steroid Library, 50 μM steroid)
Ptdlns-(3)-P1 (1,2-dipalmitoyl) (ammonium salt) | 15520 RLU | −23.38% |  | 
CCCCC[C@H](O)/C=C/C=C\C/C=C\CCCCCCC(=O)O [15(S)-HETrE] | 638320 RLU | 26.14% |  | 
O=C(O)CCC/C=C\C/C=C\C/C=C\C/C=C\CCCCCC(=O)O [20-carboxy Arachidonic Acid] | 293760 RLU | −2.36% |  | 
CCCCC/C=C\C/C=C\C/C=C\CC(O)C1CCCC(=O)O1 (racemic) [(±)5(6)-DiHET lactone] | 411120 RLU | 6.50% |  | 
CCCCC/C=C\C/C=C\C[C@H]1O[C@H]1C/C=C\CCCC(=O)NCCO [8(9)-EET Ethanolamide] | 446000 RLU | 9.14% |  | 
O=P(O)(O)OC1[C@@H](O)[C@@H](O)C(OP(=O)(O)O)[C@H](O)[C@H]1O (stereo partly drawn) [D-myo-Inositol-1,4-diphosphate (sodium salt)] | 439280 RLU | 8.63% |  | 
CCCCCCCCCCCCCCCC(=O)OC[C@H](COP(=O)([O-])OCC[N+](C)(C)C)OC(=O)CCCC(=O)O [PGPC] | 371440 RLU | 6.98% |  | 
CC/C=C\C/C=C\C=C\[C@@H](O)C/C=C\C/C=C\CCCC(=O)O [11(S)-HEPE] | 1525600 RLU | 92.11% |  | 
CCCCC/C=C\C[C@@H]1[C@H](/C=C/C(O)CCCC(=O)O)[C@@H](O)C[C@H]1O (stereo partly drawn) [5-iPF2α-VI] | 293200 RLU | 0.80% |  | 
CCCCCC(=O)/C=C/C=C\CCCCCCCCCC(=O)O [15-OxoEDE] | 261480 RLU | −1.88% |  | 
CCCCC/C=C\C/C=C\C/C=C\C=C\C1CCCC(=O)O1 (racemic) [(±)5-HETE lactone] | 348120 RLU | 4.56% |  | 
CCCCC/C=C\C=C\[C@@H](O)C/C=C\C/C=C\CCCC(=O)O [11(S)-HETE] | 696400 RLU | 30.46% |  | 
Androstanolone acetate |  |  | 200560 RLU | 0.70%
CC#CCC(C)[C@H](O)/C=C/[C@@H]1[C@H]2C/C(=C/CCCC(=O)O)C[C@H]2C[C@H]1O (stereo partly shown) [Iloprost] | 358880 RLU | 5.99% |  | 
C=CCc1ccc(O)c(-c2ccc(O)c(CC=C)c2)c1 [Honokiol] |  |  | 52920 RLU | −1.88%
CCCCC/C=C\C/C=C\CC(O)/C=C/C=C\CCCC(=O)O (racemic) [(±)9-HETE] | 1110120 RLU | 61.22% |  | 
O=C(O)CCC/C=C\C[C@@H]1[C@@H](/C=C/[C@@H](O)CCCCCO)[C@H](O)C[C@@H]1O [20-hydroxy Prostaglandin F2α] | 378680 RLU | 7.56% |  | 
CCCCCCCC\C=C/C=C/C=C/[C@@H]1O[C@H]1CCCC(=O)OC [Leukotriene A3 methyl ester] | 990560 RLU | 55.92% |  | 
O=P([O-])(O)OC1[C@@H](O)[C@H](OP(=O)([O-])O)C(OP(=O)([O-])O)[C@H](OP(=O)([O-])O)[C@H]1O.[Na+].[Na+].[Na+].[Na+] (stereo partly drawn) [D-myo-Inositol-1,2,3,5-tetraphosphate (sodium salt)] | 430640 RLU | 7.98% |  | 
CCCCCCCC[C@@H](O)C=CC=CC=C[C@@H](O)CCCC(=O)O [12-epi Leukotriene B3] | 481880 RLU | 15.71% |  | 
CCCCC/C=C\C[C@@H](O)/C=C/C=C/C=C\[C@@H](O)CCCC(=O)NCCO [Leukotriene B4 Ethanolamide] | 1948920 RLU | 131.68% |  | 
C[C@@H](O)CCC[C@@H](O)/C=C/[C@H]1[C@H](O)CC(=O)[C@@H]1C/C=C\CCCC(=O)O [15(R),19(R)-hydroxy Prostaglandin E2] | 346000 RLU | 4.97% |  | 

Compound | HSD17B13 Enzymatic Activity Relative Light Units [1] | HSD17B13 Enzymatic Activity Percent Estradiol Control [2] | HSD17B13 Enzymatic Activity Relative Light Units (Steroid Library, 50 μM steroid) | HSD17B13 Enzymatic Activity Percent Estradiol Control (Steroid Library, 50 μM steroid)
CCCCCCCC/C=C\CCCCCCCC(=O)O [Oleic Acid] |  |  | 17520 RLU | −2.50%
CCCCC/C=C\C\C=C/C=C/C=C/[C@@H]1O[C@H]1CCCC(=O)OC [Leukotriene A4 methyl ester] | 463120 RLU | 14.23% |  | 
CCCCCCCC/C=C(\CCCCCCCC(=O)O)[N+](=O)[O-] [9-Nitrooleate] | 31600 RLU | −22.16% |  | 
CCCCC/C=C\C/C=C\C/C=C\C=C\[C@@H](O)CCCC(=O)O [5(S)-HETE] | 430800 RLU | 10.71% |  | 
CCCCC[C@H](O)C/C=C1/C(=O)C=C[C@@H]1C/C=C\CCCC(=O)O [Δ12-Prostaglandin J2] | 343320 RLU | 4.76% |  | 
CC/C=C\C[C@H](O)/C=C/[C@H]1OC(=O)C[C@H](O)[C@@H]1C/C=C\CCCC(=O)O [11-dehydro Thromboxane B3] | 322480 RLU | 3.11% |  | 
O=P([O-])(O)O[C@@H]1[C@@H](O)[C@H](O)[C@H](O)[C@H](O)[C@H]1OP(=O)([O-])O.[Na+].[Na+] [D-myo-Inositol-4,5-diphosphate (sodium salt)] | 281680 RLU | −3.27% |  | 
CCCCC/C=C\C=C\[C@H](CCCCCCCC(=O)O)OO [9(S)-HpODE] | 219240 RLU | −5.03% |  | 
C[C@]12CC[C@H](O)C[C@@H]1CC[C@@H]1[C@@H]2CC[C@]2(C)C(=O)CC[C@@H]12 [Epiandrosterone] |  |  | 185800 RLU | 0.44%
CCCCC[C@H](O)/C=C/[C@H]1[C@@H](O)CC(=O)[C@@H]1C/C=C\CCCC(=O)O [11β-Prostaglandin E2] | 354840 RLU | 5.67% |  | 
CCCCC[C@@H](/C=C/C=C\CCCCCCCC(=O)O)OO [13(S)-HpODE] | 183040 RLU | −7.72% |  | 
CCCCC[C@H](O)/C=C/C=C\CCCCCCCC(=O)O [13(S)-HODE] | 792800 RLU | 37.62% |  | 
CCCCC[C@H](O)/C=C/[C@@H]1[C@H]2C/C(=C/CCCC(=O)O)C[C@H]2C[C@H]1O [Carbaprostacyclin] | 380280 RLU | 7.68% |  | 
CCC(=O)O[C@H]1CC[C@H]2[C@@H]3CC[C@H]4CC(=O)[C@H](C)C[C@]4(C)[C@H]3CC[C@]12C [Dromostanolone proprionate] |  |  | 212040 RLU | 0.90%
O=P(O)(O)OC1[C@H](O)[C@H](OP(=O)(O)O)C(OP(=O)(O)O)[C@H](OP(=O)(O)O)[C@H]1O (stereo partly drawn) [D-myo-Inositol-1,3,4,5-tetraphosphate (sodium salt)] | 358920 RLU | 2.56% |  | 
CCCCC/C=C\C/C=C\C/C=C\C=C\[C@H](CCCC(=O)O)OO [5(S)-HpETE] | 225600 RLU | −4.55% |  | 
CCCCC[C@H](O)/C=C/C=C\C/C=C\C/C=C\CCCC(=O)O [15(S)-HETE] | 1107240 RLU | 24.49% |  | 
O=C(O)CCC[C@H](O)\C=C/C=C/C=C/[C@H](O)C/C=C\CCCCCO [20-hydroxy Leukotriene B4] | 654120 RLU | 29.33% |  | 
CCCCC/C=C\C=C\C(O)C/C=C\C/C=C\CCCC(=O)O (racemic) [(±)11-HETE] | 767720 RLU | 35.76% |  | 
Ptdlns-(4,5)-P2 (1,2-dipalmitoyl) (ammonium salt) | 24120 RLU | −22.73% |  | 
CCCCC[C@@H](/C=C/C=C\CCCCCCCCCC(=O)O)OO [15(S)-HpEDE] | 232720 RLU | −4.02% |  | 
C[C@]12CCC(=O)C=C1CC[C@@H]1[C@@H]2C(=O)C[C@@]2(C)[C@H]1CC[C@]2(O)C(=O)CO [Cortisone] |  |  | 204080 RLU | 0.76%
